Source: patent publication US6465491B2, “6-phenylpyridyl-2-amine derivatives” (Pfizer Inc., priority 1996, dated 2002)
Where a name gives a salt, the structure may show the parent alone.

Structure (SMILES)	melting point
Nc1cccc(-c2ccc(CCN3CCN(c4nc(-c5ccccc5)cs4)CC3)cc2)n1 [Example 15, 6-(4-{2-[4-(4-Phenyl-thiazol-2-yl)-piperazin-1-yl]-ethyl}-phenyl)-pyridin-2-ylamine]	158 to 161 °C
Cc1cc(N)nc(-c2ccc(CCN3CCN(CCc4ccccc4)CC3)cc2)c1 (as salt: hydrochloride) [Example 128, 6-{4-[2-(4-Phenethyl-piperazin-1-yl)-ethyl]-phenyl}-4-methyl-pyridin-2-ylamine]	242 to 250 °C
Nc1cccc(-c2ccc(CCN3CCN(C(=O)NCc4ccccc4)CC3)cc2)n1 [Example 47, 4-{2-[4-(6-Amino-pyridin-2-yl)-phenyl]-ethyl}-piperazine-1-carboxylic acid benzylamide]	172 to 181 °C
CN1CC2CC1CN2CCc1ccc(-c2cccc(N)n2)cc1 (stereo not drawn) (as salt: hydrochloride)	132 °C (dec.)
CN1CCN(CCc2ccc(-c3cccc(N)n3)cc2)CC1 (as salt: hydrochloride) [Example 109, 6-{4-[2-(4-Methyl-piperazin-1-yl)-ethyl]-phenyl}-pyridin-2-ylamine]	170 °C (dec.)
Nc1cccc(-c2ccc(CCN3CCN(CC(O)c4ccccc4)CC3)cc2)n1 (stereo not drawn) (as salt: hydrochloride) [Example 103, 2-(4-{2-[4-(6-Amino-pyridin-2-yl)-phenyl]-ethyl}-piperazin-1-yl)-1-phenyl-ethanol]	235 °C (dec.)
Nc1cccc(-c2ccc(CCNC3CC4CCC(C3)N4Cc3ccc(Cl)cc3)cc2)n1 (stereo not drawn) (as salt: hydrochloride)	198 °C (dec.)
Nc1cccc(-c2ccc(CCN3CCN(C(=O)COc4ccccc4)CC3)cc2)n1	127 to 130 °C
Nc1cccc(-c2ccc(CCN3C4CCC3CC(NC(=O)c3ccccc3)C4)cc2)n1 (stereo not drawn) (as salt: hydrochloride)	211 °C (dec.)
Nc1cccc(-c2ccc(CCN3CCN(C(=O)c4ccco4)CC3)cc2)n1 [Example 7, (4-{2-[4-(6-Amino-pyridin-2-yl)-phenyl]-ethyl}-piperazin-1-yl)-furan-2-yl-methanone]	152 to 154 °C
Nc1cccc(-c2ccc(CCCNC3CCc4ccccc4C3)cc2)n1 (stereo not drawn) (as salt: hydrochloride) [Example 127, 6-{4-[3-(1,2,3,4-Tetrahydro-naphthalen-2-ylamino)-propyl]-phenyl}-pyridin-2-ylamine]	120 to 130 °C
CC(=O)N(CCc1ccc(-c2cccc(N)n2)cc1)C1CCN(Cc2ccccc2)CC1 (as salt: hydrochloride)	60 to 70 °C (dec.)
Nc1cccc(-c2ccc(CCN3CC4C(C3)C4NC(=O)Nc3ccccc3)cc2)n1 (stereo not drawn) [Example 36, 1-(3-{2-[4-(6-Amino-pyridin-2-yl)-phenyl]-ethyl}-3-aza-bicyclo[3.1.0]hex-6-yl)-3-phenyl-urea]	192 to 194 °C
Nc1cccc(-c2ccc(CCN3CCC(N)CC3)cc2)n1 (as salt: trifluoroacetate) [Example 67, 6-{4-[2-(4-Amino-piperidin-1-yl)-ethyl]-phenyl}-pyridin-2-ylamine]	190 to 195 °C
Nc1cccc(-c2ccc(CCN3CCN(CCc4ccccc4)CC3)cc2)n1 [Example 1, 6-{4-[2-(4-Phenethyl-piperazin-1-yl)-ethyl]-phenyl}-pyridin-2-ylamine]	111 to 113 °C
Nc1cccc(-c2ccc(CCNC3CC4CCC(C3)N4Cc3ccc(F)cc3)cc2)n1 (stereo not drawn) (as salt: hydrochloride)	190 °C (dec.)
Nc1cccc(-c2ccc(CCNC3CC4CCC(C3)N4)cc2)n1 (stereo not drawn) (as salt: hydrochloride)	170 °C (dec.)
Nc1cccc(-c2ccc(CNC3Cc4ccccc4C3)cc2)n1 (as salt: hydrochloride) [Example 139, 6-[4-(Indan-2-ylaminomethyl)-phenyl]-pyridin-2-ylamine]	185 to 187 °C
Nc1cccc(-c2ccc(CCCN3CCN(CCc4ccccc4)CC3)cc2)n1 (as salt: hydrochloride) [Example 129, 6-{4-[3-(4-Phenethyl-piperazin-1-yl)-propyl]-phenyl}-pyridin-2-ylamine]	125 to 140 °C
Nc1cccc(-c2ccc(CCNC34CC5CC(CC(C5)C3)C4)cc2)n1 (as salt: hydrochloride) [Example 115, 6-{4-[2-(Adamantan-1-ylamino)-ethyl]-phenyl}-pyridin-2-ylamine]	200 to 220 °C (dec.)
Nc1cccc(-c2ccc(CCNC3CC4COCC(C3)N4)cc2)n1 (stereo not drawn) (as salt: hydrochloride) [104]	100 °C (dec.)
Nc1cccc(-c2ccc(CCNC3Cc4ccccc4C3)cc2)n1 (as salt: hydrochloride) [Example 117, 6-{4-[2-(Indan-2-ylamino)-ethyl]-phenyl}-pyridin-2-ylamine]	60 to 70 °C (dec.)
Nc1cccc(-c2ccc(CCN3CCC(NC(=O)Nc4ccccc4)C3)cc2)n1 (stereo not drawn) (as salt: hydrochloride) [Example 72, 1-(1-{2-[4-(6-Amino-pyridin-2-yl)-phenyl]-ethyl}-pyrrolidin-3-yl)-3-phenyl-urea]	130 °C (dec.)

Structure (SMILES)	melting point
Nc1cccc(-c2ccc(CCN3CCC4(CC3)NC(=O)N(CCc3ccccc3)C4=O)cc2)n1 (as salt: hydrochloride) [Example 57, 8-{2-[4-(6-Amino-pyridin-2-yl)-phenyl]-ethyl}-3-phenethyl-1,3,8-triaza-spiro[4.5]decane-2,4-dione]	176 to 180 °C
COCC(=O)N1CCN(CCc2ccc(-c3cccc(N)n3)cc2)CC1 [Example 11, 1-(4-{2-[4-(6-Amino-pyridin-2-yl)-phenyl]-ethyl}-piperazin-1-yl)-2-methoxy-ethanone]	148 to 150 °C
Nc1cccc(-c2ccc(CCN(CC3CCCCC3)CC3CCCCC3)cc2)n1 (as salt: salt) [Example 124, 6-{4-[2-(Bis-cyclohexylmethyl-amino)-ethyl]-phenyl}-pyridin-2-ylamine]	75 to 85 °C
Nc1cccc(-c2ccc(CCNC3CC4CCC(C3)N4Cc3ccccc3)cc2)n1 (stereo not drawn) (as salt: hydrochloride)	260 °C (dec.)
Nc1cccc(-c2ccc(CCNC3C4CCCC3CN(Cc3ccccc3)C4)cc2)n1 (stereo not drawn) (as salt: hydrochloride) [Example 84, {2-[4-(6-Amino-pyridin-2-yl)-phenyl]-ethyl}-(3-benzyl-3-aza-bicyclo[3.3.1]non-9-yl)-amine]	190 °C (dec.)
Nc1cccc(-c2ccc(CCN3Cc4ccccc4CC3C(=O)O)cc2)n1 (stereo not drawn) (as salt: hydrochloride) [Example 28, 2-{2-[4-(6-Amino-pyridin-2-yl)-phenyl]ethyl}-1,2,3,4-tetrahydro-isoquinoline-3-carboxylic acid]	110 °C (dec.)
Nc1cccc(-c2ccc(CCN3CCC(NC(=O)NC4CCCCC4)C3)cc2)n1 (stereo not drawn) (as salt: hydrochloride) [Example 74, 1-(1-{2-[4-(6-Amino-pyridin-2-yl)-phenyl]-ethyl}-pyrrolidin-3-yl)-3-cyclohexyl-urea]	120 °C (dec.)
Nc1cccc(-c2ccc(CCN3CCN(CCc4ccc(F)cc4)CC3)cc2)n1 [Example 53, 6-[4-(2-{4-[2-(4-Fluoro-phenyl)-ethyl]-piperazin-1-yl}-ethyl)-phenyl]-pyridin-2-ylamine]	165 to 167 °C
Nc1cccc(-c2ccc(CCNCCCCCc3ccccc3)cc2)n1 [Example 126, 6-{4-[2-(5-Phenyl-pentylamino)-ethyl]-phenyl}-pyridin-2-ylamine]	60 to 70 °C
CN(C)C1CCN(CCc2ccc(-c3cccc(N)n3)cc2)CC1 [Example 21, 6-{4-[2-(4-Dimethylamino-piperidin-1-yl)-ethyl]-phenyl}-pyridin-2-ylamine]	174 to 176 °C
Nc1cccc(-c2ccc(CCN3CCN(C(=O)Cc4ccc(F)cc4)CC3)cc2)n1	143 to 145 °C
Nc1cccc(-c2ccc(CCN3CCCC(N)C3)cc2)n1 (stereo not drawn) (as salt: hydrochloride) [Example 86, 6-{4-[2-(3-Amino-piperidin-1-yl)-ethyl]-phenyl}-pyridin-2-ylamine]	150 °C (dec.)
Nc1cccc(-c2ccc(CCN3C4CCC3CC(NC(=O)Cc3ccc(F)cc3)C4)cc2)n1 (stereo not drawn) (as salt: hydrochloride)	160 °C (dec.)
Cc1cccc(N2CCN(CCc3ccc(-c4cccc(N)n4)cc3)CC2)c1 [Example 8, 6-{4-[2-(4-m-Tolyl-piperazin-1-yl)-ethyl]-phenyl}-pyridin-2-ylamine]	158 to 160 °C
CC(=O)N1CCN(CCc2ccc(-c3cccc(N)n3)cc2)CC1 [Example 10, 1-(4-{2-[4-(6-Amino-pyridin-2-yl)-phenyl]-ethyl}-piperazin-1-yl)-ethanone]	201 to 203 °C
Cl.Nc1cccc(-c2ccc(CCN3CC4C(C3)C4NCCCc3ccccc3)cc2)n1 (stereo not drawn)	160 to 163 °C
Cc1ccc(NC(=O)N2CCN(CCc3ccc(-c4cccc(N)n4)cc3)CC2)cc1 [Example 30, 4-{2-[4-(6-Amino-pyridin-2-yl)-phenyl]-ethyl}-piperazine-1-carboxylic acid p-tolyl-amide]	160 to 162 °C
Nc1cccc(-c2ccc(CCNC3C4CC5CC(C4)CC3C5)cc2)n1 (stereo not drawn) (as salt: hydrochloride) [Example 116, 6-{4-[2-(Adamantan-2-ylamino)-ethyl]-phenyl}-pyridin-2-ylamine]	215 to 230 °C (dec.)
CN(Cc1ccc(-c2cccc(N)n2)cc1)C1CCCCC1 (as salt: hydrochloride) [Example 136, 6-{4-[(Cyclohexyl-methyl-amino)-methyl]-phenyl}-pyridin-2-ylamine]	> 250 °C
Nc1cccc(-c2cccc(CCN3CCN(CCc4ccccc4)CC3)c2)n1 (as salt: hydrochloride) [Example 130, 6-{3-[2-(4-Phenethyl-piperazin-1-yl)-ethyl]-phenyl}-pyridin-2-ylamine]	120 °C (dec.)
Nc1cccc(-c2ccc(CN3CC4C(N)C4C3)cc2)n1 (stereo not drawn) (as salt: hydrochloride)	189 to 192 °C (dec.)
Nc1cccc(-c2ccc(CCN3CCC(NC(=O)NCc4ccccc4)C3)cc2)n1 (stereo not drawn) (as salt: hydrochloride) [Example 73, 1-(1-{2-[4-(6-Amino-pyridin-2yl)-phenyl]-ethyl}-pyrrolidin-3-yl)-3-benzyl-urea]	90 °C (dec.)
